± gives the expanded uncertainty stated by the source.
Assay: xn = mol fraction of the nth substance listed
Settings: Liquid, Vibrating tube method

Work on `CCCCCCCCCCCCCCCCCC` [octadecane] + CCCCCCCCCC yielded a mass density (295.1 K, 1000 kPa, x2 = 0.5) of 759.7 ± 0.4 kg/m3, a mass density (295.1 K, 2000 kPa, x2 = 0.5) of 760.4 ± 0.4 kg/m3 and a mass density (295.1 K, 3000 kPa, x2 = 0.5) of 761.1 ± 0.4 kg/m3. The mass density (295.1 K, 4000 kPa, x2 = 0.5) was 761.7 ± 0.4 kg/m3, the mass density (295.1 K, 5000 kPa, x2 = 0.5) was 762.4 ± 0.4 kg/m3 and the mass density (295.1 K, 6000 kPa, x2 = 0.5) was 763.1 ± 0.4 kg/m3. It also gave a mass density (295.1 K, 7000 kPa, x2 = 0.5) of 763.7 ± 0.4 kg/m3, a mass density (295.1 K, 8000 kPa, x2 = 0.5) of 764.4 ± 0.4 kg/m3 and a mass density (295.1 K, 9000 kPa, x2 = 0.5) of 765.1 ± 0.4 kg/m3. For the same compound, the mass density (295.1 K, 10000 kPa, x2 = 0.5) was 765.8 ± 0.4 kg/m3, the mass density (295.2 K, 1000 kPa, x2 = 0.75) was 745.7 ± 0.4 kg/m3 and the mass density (295.2 K, 2000 kPa, x2 = 0.75) was 746.4 ± 0.4 kg/m3. The mass density (295.2 K, 3000 kPa, x2 = 0.75) was 747.1 ± 0.4 kg/m3, the mass density (295.2 K, 4000 kPa, x2 = 0.75) was 747.9 ± 0.4 kg/m3 and the mass density (295.2 K, 5000 kPa, x2 = 0.75) was 748.6 ± 0.4 kg/m3. For the same compound, the mass density (295.2 K, 6000 kPa, x2 = 0.75) was 749.3 ± 0.4 kg/m3, the mass density (295.2 K, 7000 kPa, x2 = 0.75) was 750 ± 0.4 kg/m3 and the mass density (295.2 K, 8000 kPa, x2 = 0.75) was 750.7 ± 0.4 kg/m3. The mass density (295.2 K, 9000 kPa, x2 = 0.75) was 751.4 ± 0.4 kg/m3, the mass density (295.2 K, 10000 kPa, x2 = 0.75) was 752.1 ± 0.4 kg/m3 and the mass density (295.8 K, 1000 kPa, x2 = 0.9) was 733.9 ± 0.4 kg/m3. The mass density (295.8 K, 2000 kPa, x2 = 0.9) was 734.7 ± 0.4 kg/m3, the mass density (295.8 K, 3000 kPa, x2 = 0.9) was 735.4 ± 0.4 kg/m3 and the mass density (295.8 K, 4000 kPa, x2 = 0.9) was 736.2 ± 0.4 kg/m3. The mass density (295.8 K, 5000 kPa, x2 = 0.9) was 736.9 ± 0.4 kg/m3, the mass density (295.8 K, 6000 kPa, x2 = 0.9) was 737.6 ± 0.4 kg/m3 and the mass density (295.8 K, 7000 kPa, x2 = 0.9) was 738.4 ± 0.4 kg/m3. For the same compound, the mass density (295.8 K, 8000 kPa, x2 = 0.9) was 739.1 ± 0.4 kg/m3, the mass density (295.8 K, 9000 kPa, x2 = 0.9) was 739.9 ± 0.4 kg/m3 and the mass density (295.8 K, 10000 kPa, x2 = 0.9) was 740.6 ± 0.4 kg/m3.
